Measurements as given in patent US10828301B2, “2,4-pyrimidinediamine compounds and their uses” (Rigel Pharmaceuticals, Inc, priority 2002, dated 2020).

How the values were obtained:
[1] = tested on: cultured human mast cells (CHMC); experiment: CHMC low cell density IgE activation: tryptase and LTC4 assays; format: cell-based
Outline: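 Cultured human mast cells at low density (1000-1500 per well) rested 1 h at 37° C, then stimulated with anti-IgE for 30 min at 37° C. Supernatant tryptase measured with fluorogenic substrate (30 min, room temperature); LTC4 quantified by ELISA on diluted supernatant.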

[2] = tested on: cultured human mast cells (CHMC); experiment: CHMC low cell density ionomycin activation: tryptase assay; format: cell-based; details: read-out: CHMC Ionomycin Tryptase
[3] = Homo sapiens, Mast cell, Low Density CHMC, anti-IgE activation, tryptase readout, read-out: CHMC anti-IgE Tryptase
[4] = Homo sapiens, Mast cell, Low Density CHMC, ionomycin activation, tryptase readout

Row | SMILES | IC50 [1, 3] | IC50 [2, 4] | other results
1 | COC(=O)c1ccc(CNc2nc(Nc3cccc(O)c3)ncc2C#N)cc1 [Compound R925821, 5-Cyano-N2-(3-hydroxyphenyl)-N4-(methoxycarbonylbenzyl)-2,4-pyrimidinediamine] |  |  | IC50 ([1]; Low Density CHMC, anti-IgE activation, tryptase readout, read-out: CHMC anti-IgE Tryptase): > 10 µM; IC50 ([2]; Low Density CHMC, ionomycin activation, tryptase readout): > 10 µM
2 | C=CCNc1ncc(Br)c(Nc2cccc(O)c2)n1 [Compound R925822, N2-Allyl-5-bromo-N4-(3-hydroxyphenyl)-2,4-pyrimidinediamine] | > 10 µM | > 10 µM | 
3 | C=CCNc1ncc(F)c(Nc2ccc3c(c2)OCCO3)n1 [Compound R925823, N2-Allyl-N4-(3,4-ethylenedioxyphenyl)-5-fluoro-2,4-pyrimidinediamine] | > 10 µM | > 10 µM | 
4 | CCOC(=O)c1cnc(Nc2cccc(O)c2)nc1NOCc1ccccc1 [Compound R925824, N4-Benzyloxy-5-ethoxycarbonyl-N2-(3-hydroxyphenyl)-2,4-pyrimidinediamine] | > 10 µM | > 10 µM | 
5 | CCOC(=O)c1cnc(Nc2ccc3c(c2)OCCO3)nc1NOCc1ccccc1 [Compound R925837, N4-Benzyloxy-5-ethoxycarbonyl-N2-(3,4-ethylenedioxyphenyl)-2,4-pyrimidinediamine] | > 10 µM | > 10 µM | 
6 | CCOC(=O)c1nc(Nc2cccc(O)c2)nc(Nc2cccc(O)c2)c1[N+](=O)[O-] [Compound R925849, N2,N4-Bis(3-hydroxyphenyl)-6-ethoxycarbonyl-5-nitro-2,4-pyrimidinediamine] | 8.2 µM | > 10 µM | 
7 | CCOC(=O)c1nc(Nc2cccc(O)c2)nc(Nc2cccc(O)c2)c1N [Compound R925856, 5-Amino-6-ethoxycarbonyl-N2,N4-bis(3-hydroxyphenyl)-2,4-pyrimidinediamine] | 9.85 µM | > 10 µM | 
8 | CCOC(=O)c1nc(Nc2ccc3c(c2)OCCO3)nc(Nc2ccc3c(c2)OCCO3)c1N [Compound R925857, 5-Amino-6-ethoxycarbonyl-N2,N4-bis(3,4-ethylenedioxyphenyl)-2,4-pyrimidinediamine] | 5.95 µM | > 10 µM | 
9 | CCOC(=O)CNc1nc(NCC(=O)OCC)c([N+](=O)[O-])c(C(=O)OCC)n1 [Compound R925864, N2,N4-Bis(ethoxycarbonylmethyl)-6-ethoxycarbonyl-5-nitro-2,4-pyrimidinediamine] | > 10 µM | > 10 µM | 
10 | CCOC(=O)CNc1nc(NCC(=O)OCC)c(N)c(C(=O)OCC)n1 [Compound R925865, 5-Amino-N2,N4-bis(ethoxycarbonylmethyl)-6-ethoxycarbonyl-2,4-pyrimidinediamine] | > 10 µM | > 10 µM | 
11 | Cc1cnc(Nc2ccc3c(c2)OCCO3)nc1Nc1ccc2c(c1)OCCO2 [Compound R926242, N2,N4-Bis(3,4-ethylenedioxyphenyl)-5-methyl-2,4-pyrimidinediamine] | 4.2 µM | > 10 µM | 
12 | CCOC(=O)c1cnc(Nc2ccc(CC#N)cc2)nc1Nc1ccc(CC#N)cc1 [Compound R926319, N2,N4-Bis(4-cyanomethylphenyl)-5-ethoxycarbonyl-2,4-pyrimidinediamine] | > 10 µM | > 10 µM | 
13 | CCOC(=O)C=Nc1ccc(Nc2ncc(C(=O)OCC)c(Nc3ccc(N=CC(=O)OCC)cc3)n2)cc1 [Compound R926331, N2,N4-Bis(4-ethoxycarbonylmethyleneaminophenyl)-5-ethoxycarbonyl-2,4-pyrimidinediamine] | > 10 µM | > 10 µM | 
14 | Fc1cnc(Nc2ccc3c(c2)OC(F)(F)O3)nc1Nc1ccc2c(c1)OCCO2 [Compound R926386, N2-(2,2-Difluorobenzodioxol-5-yl)-N4-(3,4-ethylenedioxyphenyl)-5-fluoro-2,4-pyrimidinediamine] | > 10 µM | > 10 µM | 
15 | Fc1cnc(Nc2cccc(OCc3ccccc3)c2)nc1Nc1cccc(OCc2ccccc2)c1 [Compound R926394, N2,N4-Bis(3-benzyloxyphenyl)-5-fluoro-2,4-pyrimidinediamine] | > 10 µM | > 10 µM | 
16 | Cc1cnc(NCCc2ccc(O)cc2)nc1NCCc1ccc(O)cc1 [Compound R926397, N2,N4-Bis[2-(4-hydroxyphenyl)ethyl]-5-methyl-2,4-pyrimidinediamine] | > 10 µM | > 10 µM | 
17 | Fc1cnc(Nc2ccccc2-c2ccccc2)nc1Nc1ccccc1-c1ccccc1 [Compound R926398, N2,N4-Bis(2-phenylphenyl)-5-fluoro-2,4-pyrimidinediamine] | > 10 µM | > 10 µM | 
18 | Fc1cnc(Nc2cccc(-c3ccccc3)c2)nc1Nc1cccc(-c2ccccc2)c1 [Compound R926403, N2,N4-Bis[(3-phenyl)phenyl]-5-fluoro-2,4-pyrimidinediamine] | > 10 µM | > 10 µM | 
19 | Cc1cnc(Nc2ccccc2-c2ccccc2)nc1Nc1ccccc1-c1ccccc1 [Compound R926404, N2,N4-Bis(2-phenylphenyl)-5-methyl-2,4-pyrimidinediamine] | > 10 µM | > 10 µM | 
20 | Oc1ccc(Nc2ncc(F)c(Nc3ccc(O)cc3)n2)cc1 [Compound R926405, N2,N4-Bis(4-hydroxyphenyl)-5-fluoro-2,4-pyrimidinediamine] | 3.4 µM | > 10 µM | 
21 | Oc1cccc(Nc2cc(Cl)nc(Nc3cccc(O)c3)n2)c1 [Compound R926408, N2,N4-Bis(3-hydroxyphenyl)-6-chloro-2,4-pyrimidinediamine] | 9.6 µM | > 10 µM | 
22 | CC(C)NC(=O)Oc1cccc(Nc2ncc(F)c(Nc3cccc(OC(=O)NC(C)C)c3)n2)c1 [Compound R926412, N2,N4-Bis(3-isopropylaminocarbonyloxyphenyl)-5-fluoro-2,4-pyrimidinediamine] |  |  | IC50 ([1]; Homo sapiens, Mast cell, read-out: CHMC anti-IgE Tryptase): 0.62 µM; IC50 ([2]; Homo sapiens, Mast cell): > 10 µM
23 | COC(=O)c1cc2cc(Nc3nc(Nc4ccc5c(c4)OCCO5)ncc3F)ccc2o1 [Compound R926485, N2-(3,4-Ethylenedioxyphenyl)-N4-(2-methoxycarbonylbenzofuran-5-yl)-5-fluoro-2,4-pyrimidinediamine] | 4.01 µM | > 10 µM | 

Second part, led by results:

Row | IC50 [1, 3] | IC50 [2, 4] | SMILES | other results
24 | 3 µM | > 10 µM | CCOC(=O)c1nc(Nc2ccc3c(c2)OCCO3)nc(Nc2ccc3c(c2)OCCO3)c1[N+](=O)[O-] [Compound R925852, N2,N4-Bis(3,4-ethylendioxyphenyl)-6-ethoxycarbonyl-5-nitro-2,4-pyrimidinediamine] | 
25 | 0.274 µM | > 10 µM | Oc1cccc(Nc2ncc(C(F)(F)F)c(Nc3cccc(O)c3)n2)c1 [Compound R925863, N2,N4-Bis(3-hydroxyphenyl)-5-trifluoromethyl-2,4-pyrimidinediamine] | 
26 | 3.1 µM | > 10 µM | c1cc(Nc2ccc3c(c2)OCCO3)nc(Nc2ccc3c(c2)OCCO3)n1 [Compound R926243, N2,N4-Bis(3,4-ethylenedioxyphenyl)-2,4-pyrimidinediamine] | 
27 | 3.1 µM | 9.4 µM | Clc1cc(Nc2ccc3c(c2)OCCO3)nc(Nc2ccc3c(c2)OCCO3)n1 [Compound R926245, N2,N4-Bis(3,4-ethylenedioxyphenyl)-6-chloro-2,4-pyrimidinediamine] | 
28 | 0.66 µM | > 10 µM | COc1ccc(Nc2ncc(F)c(Nc3ccc(OC)c(O)c3)n2)cc1O [Compound R926339, N2,N4-Bis(3-hydroxy-4-methoxyphenyl)-5-fluoro-2,4-pyrimidinediamine] | 
29 | 3.23 µM | > 10 µM | CCOC(=O)Nc1ccc(Nc2ncc(F)c(Nc3ccc(NC(=O)OCC)c(O)c3)n2)cc1O [Compound R926340, N2,N4-Bis(4-ethoxycarbonylamino-3-hydroxyphenyl)-5-fluoro-2,4-pyrimidinediamine] | 
30 | 3.15 µM | > 10 µM | Oc1cccc(Nc2cc(Nc3cccc(O)c3)nc(Nc3cccc(O)c3)n2)c1 [Compound R926409, N2,N4,N6-Tris(3-hydroxyphenyl)-2,4,6-pyrimidinetriamine] | 
31 | 1.18 µM | 8.8 µM | Clc1nc(Nc2ccc3c(c2)OCCO3)nc(Nc2ccc3c(c2)OCCO3)c1Cl [Compound R926467, N2,N4-Bis(3,4-ethylenedioxyphenyl)-5,6-dichloro-2,4-pyrimidinediamine] | 
32 | 2.5 µM | > 10 µM | CCOC(=O)c1cc2cc(Nc3ncc(F)c(Nc4ccc(C(C)(C)C)cc4)n3)ccc2[nH]1 [Compound R926474, N4-(4-tert-Butylphenyl)-N2-(2-ethoxycarbonylindol-5-yl)-5-fluoro-2,4-pyrimidinediamine] | 
33 | 0.6 µM | 7.7 µM | CCOC(=O)c1cc2cc(Nc3ncc(F)c(Nc4ccc5c(c4)OCCO5)n3)ccc2[nH]1 [Compound R926476, N2-(2-Ethoxycarbonylindol-5-yl)-N4-(3,4-ethylenedioxyphenyl)-5-fluoro-2,4-pyrimidinediamine] | 
34 | 0.27 µM | > 10 µM | COC(=O)c1cc2cc(Nc3ncc(F)c(Nc4ccc(C(C)(C)C)cc4)n3)ccc2o1 [Compound R926477, N4-(4-tert-Butylphenyl)-5-fluoro-N2-(2-methoxycarbonylbenzofuran-5-yl)-2,4-pyrimidinediamine] | 
35 | 1.45 µM | > 10 µM | CC(C)(C)c1ccc(Nc2nc(Nc3ccc4oc(C(=O)O)cc4c3)ncc2F)cc1 [Compound R926481, N4-(4-tert-Butylphenyl)-N2-(2-carboxybenzofuran-5-yl)-5-fluoro-2,4-pyrimidinediamine] | 
36 | 0.554 µM | 8.87 µM | COC(=O)c1cc2cc(Nc3ncc(F)c(Nc4cccc(OC(C)C)c4)n3)ccc2o1 [Compound R926487, 5-Fluoro-N4-(3-isopropoxyphenyl)-N2-(2-methoxycarbonylbenzofuran-5-yl)-2,4-pyrimidinediamine] | IC50 ([1]; Homo sapiens, Mast cell, Low Density CHMC, anti-IgE activation, LTC4 readout, read-out: CHMC anti-IgE LTC4): 1.25 µM
